From US20130295154A1, “POLY(METH)ACRYLATE BASED MICROCAPSULES COMPRISING PHEROMONE” (BASF SE, priority 2011, published 2013) come the findings set out here.

For the assay, the system named is male codling moths. As to the kind of experiment: Wind tunnel test, behavioral responses of male codling moths. The format is in vivo, Cydia pomonella (codling moth).
Where [1] appears, read: Example 6, mean percentage, 100000 μg alone.
[2] abbreviates: Example 5, 100 μg alone, initial values.
Setting [3] is: Example 6, mean percentage, 100 μg alone.

As for `CC(C)=CCC/C(C)=C/CC/C(C)=C/CO` [E,E-farnesol], under setting [1], the “Oriented Flight of Males” value came to 0%, the “Source Contact of Males” value is listed as 0% and the “Upwind Response of Males” value came out at 25%.
Regarding `CCCCCOC(C)=O` [amyl acetate], under setting [1], the “Oriented Flight of Males” value turned out to be 5%, the “Source Contact of Males” value was 0% and the “Upwind Response of Males” value is 30%.
With `C/C=C/C=C/CCCCCCCO` [codlemone, (E,E)-8,10-dodecadien-1-ol], under setting [2], the “Oriented Flight of Males” value is listed as 55, the “Source Contact of Males” value came out at 40 and the “Upwind Response of Males” value came out at 60. Besides, under setting [3], the “Oriented Flight of Males” value was 60%, the “Source Contact of Males” value is recorded as 50% and the “Upwind Response of Males” value stood at 70%.
`CCCCCCCCCCCCO` [dodecanol]: under setting [1], the “Oriented Flight of Males” value was 0%, the “Source Contact of Males” value came out at 0% and the “Upwind Response of Males” value was found to be 20%.
Regarding `CCOC(=O)CC(C)C` [ethyl isovalerate, ethyl 3-methylbutanoate], under setting [1], the “Oriented Flight of Males” value came out at 10%, the “Source Contact of Males” value turned out to be 0% and the “Upwind Response of Males” value turned out to be 30%.
In the same order, the values of `COC(=O)c1ccccc1O` [methyl salicylate] are 0%, 0% and 25%.
Consider `CCCCC/C=C\C=C\C(=O)OCC` [pear ester, ethyl (2E,4Z)-decadienoate], for which, under setting [1], the “Oriented Flight of Males” value was 0%, the “Source Contact of Males” value was determined as 0% and the “Upwind Response of Males” value is 27%.
